Measured values published in PubChem BioAssay (NCI).
“And” between values parts separate entries of the source, which are not always exact repeats. Equal entries are not always repeated.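 Compound exposure: 48 hours, 5 concentrations, 96-well plates. At the GI50, growth is halved. At the TGI there is no net growth.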

Tests used:
Test in all cases: DTP human tumour cell line panel, 48 h
A498 renal = tested on: A498 renal
COLO 205 colon = tested on: COLO 205 colon
EKVX NSCLC = tested on: EKVX NSCLC
MALME-3M melanoma = tested on: MALME-3M melanoma
OVCAR-8 ovarian = tested on: OVCAR-8 ovarian
PC-3 prostate = tested on: PC-3 prostate
SK-MEL-28 melanoma = tested on: SK-MEL-28 melanoma
SK-MEL-5 melanoma = tested on: SK-MEL-5 melanoma
SNB-19 CNS = tested on: SNB-19 CNS
UACC-62 melanoma = tested on: UACC-62 melanoma

SMILES | TGI (A498 renal) | TGI (COLO 205 colon) | TGI (EKVX NSCLC) [µM] | TGI (MALME-3M melanoma) [µM] | TGI (OVCAR-8 ovarian) [µM] | TGI (PC-3 prostate) | TGI (SK-MEL-28 melanoma) | TGI (SK-MEL-5 melanoma) | TGI (SNB-19 CNS) | TGI (UACC-62 melanoma) [µM] | GI50 (A498 renal) [µM] | GI50 (COLO 205 colon) [µM] | GI50 (EKVX NSCLC) [µM] | GI50 (MALME-3M melanoma) | GI50 (OVCAR-8 ovarian) | GI50 (PC-3 prostate) [µM] | GI50 (SK-MEL-28 melanoma) [µM] | GI50 (SK-MEL-5 melanoma) [µM] | GI50 (SNB-19 CNS) | GI50 (UACC-62 melanoma)
c1ccc(CCCNc2nnnc3ccccc23)cc1 | > 100 µM | > 100 µM | > 100 | > 100 | > 100 | > 100 µM | > 100 µM | > 100 µM | > 100 µM | > 100 |  |  |  |  |  |  |  |  |  | 
Cc1c2cnccc2c(C)c2c1c1cc(C(=O)O)ccc1n2C | 2.14 µM | 4.02 µM | 5.74 | 2.97 | 8.3 | 8.09 µM | 3.71 µM | 2.44 µM | 10.3 µM | 2.12 | 0.41 | 0.594 | 1.53 | 0.942 µM | 0.675 µM | 1.68 | 1.36 | 0.897 | 0.738 µM | 0.546 µM
O=C1c2ccccc2C(=O)c2c(NC(=O)C(Cl)CCl)cccc21 (stereo not drawn) | 36.2 µM | 26.9 µM | 42.7 | 47.2 | > 39.1 | 24.3 µM | 35.5 µM | 28.1 µM | 32.9 µM | 33.9 |  |  |  |  |  |  |  |  |  | 
NC(=O)c1ccc2nc(-c3ccc(C4(N)CCC4)cc3)c(-c3ccccc3)n2n1 | 0.642 µM | 19 µM | 49.6 | 19.7 | 39.3 | 20.1 µM | 23.7 µM | 23.3 µM | 25.8 µM | 22.7 | 0.0734 | 0.976 | 13.6 | 1.19 µM | 17.4 µM | 0.183 | 10.9 | 10.9 | 11.3 µM | 10.3 µM
CN(C)CCN1C(=O)c2cccc3c(N)ccc(c23)C1=O | > 25 µM | > 25 µM | > 25 | > 25 | > 25 | > 25 µM | > 25 µM | > 25 µM | > 25 µM | > 25 | 11.5 | 8.18 | 14.2 | 7.74 µM | 9.53 µM | 13.5 | 11.9 | 9.13 | 14.3 µM | 7.39 µM
Nc1ccc(-c2ccc(Nc3cc(S(=O)(=O)O)c(N)c4c3C(=O)c3ccccc3C4=O)cc2)c(S(=O)(=O)O)c1 | > 100 µM | > 100 µM | > 100 | > 100 | > 100 | > 100 µM | > 100 µM | > 100 µM | > 100 µM | > 100 |  |  |  |  |  |  |  |  |  | 
CC(N)(Cc1c[nH]c2ccccc12)C(=O)O (stereo not drawn) | > 2500 µM | > 2500 µM | > 2500 | > 2500 | > 2500 | > 2500 µM | > 2500 µM | > 2500 µM | > 2500 µM | > 2500 | > 2500 | > 2500 | > 2500 | 522 µM | > 2500 µM | > 2500 | > 2500 | 2350 | > 2500 µM | > 2500 µM
COc1cc(/C=C/C(=O)NC[C@]2(O)CCC3C4CCc5cc(O)ccc5C4CCC32C)ccc1O (stereo partly drawn) | > 100 µM | 64.5 µM | > 100 | 42.3 | > 100 | > 100 µM | > 100 µM | 19.3 µM | > 100 µM | > 100 | 74.1 | 13.4 | 13.9 | 3.5 µM | 23.8 µM | 5.2 | 33.9 | 2.91 | 49 µM | 16.8 µM
COc1ccc2[nH]c3c(C)c4cc[n+](C)cc4c(C)c3c2c1 | 51.9 µM [middle of 4 runs] | 7.97 µM and 4.89 µM and 3.58 µM |  |  |  | 99.3 µM and > 250 µM | 10.8 µM [middle of 4 runs] | 7.15 µM [middle of 4 runs] | 1.04 µM [middle of 4 runs] |  |  |  | 0.63 | 0.624 µM and 2.38 µM | 0.0892 µM and 0.134 µM |  | 3.07 | 2.07 | 0.103 µM and 0.322 µM | 1.28 µM and 7.39 µM
